Test results: ChEMBL document CHEMBL1151694, “Efficient synthesis and biological evaluation of two modafinil analogues” (2008)
Calls of active or inactive are those of the source. The rule behind the calls is not given here.

Key:
Cortex [1] = experiment: Effect on spontaneous [3H]5HT […] in Sprague-Dawley rat brain cortical slices at 0.1 to 100 uM measured after 45 mins of superfusion; type: functional, tissue-based
Cortex [2] = experiment: Effect on electrically-evoked [3H]5HT […] in Sprague-Dawley rat brain cortical slices administered 15 mins before electrical challenge at 100 uM after 85 mins of superfusion relative to control; type: functional, tissue-based
Cortex [3] = experiment: Effect on spontaneous [3H]5HT […] in Sprague-Dawley rat brain cortical slices at 1 to 30 uM measured after 45 mins of superfusion; type: functional, tissue-based
Cortex [4] = experiment: Effect on electrically-evoked [3H]5HT […] in Sprague-Dawley rat brain cortical slices administered 15 mins before electrical challenge at 30 uM after 85 mins of superfusion relative to control; type: functional
Cortex [5] = experiment: Effect on electrically-evoked [3H]5HT […] in Sprague-Dawley rat brain cortical slices administered 15 mins before electrical challenge after 85 mins of superfusion relative to control; type: functional, tissue-based
Cortex [6] = experiment: Effect on spontaneous [3H]5HT […] in Sprague-Dawley rat brain cortical slices at 0.1 to 30 uM measured after 45 mins of superfusion; type: functional, tissue-based

| SMILES | Activity (Cortex [1]) | Activity (Cortex [2]) | Activity (Cortex [3]) | Activity (Cortex [4]) | Activity (Cortex [5]) | Activity (Cortex [6]) |
| --- | --- | --- | --- | --- | --- | --- |
| NC(=O)CC(=O)C(c1ccccc1)c1ccccc1 | inactive | Active |  |  |  |  |
| NC(=O)C[S+]([O-])C(c1ccccc1)c1ccccc1 (configuration not stated) [MODAFINIL] |  |  | inactive | 217% | Dose-dependent effect |  |
| CC(C)NC(=O)CC(=O)C(c1ccccc1)c1ccccc1 |  |  |  |  | Dose-dependent effect | inactive |
